Results on 20 molecules are retold here after patent publication US10844013B2, “Phenyl amino piperidine mTORC inhibitors and uses thereof” (Navitor Pharmaceuticals, Inc., priority 2016, dated 2020).

Structures are written as SMILES. Counter-ions that a name gives are not always drawn. Like-named read-outs stand apart in the source and are kept apart here.

In assay [1] the test system is pAKT (p-Akt 1/2/3 (Ser473)) in MCF-7 cells. As to the kind of experiment: AlphaLISA Ultra pAKT assay. Format: cell-based. The method in brief:
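MCF-7 cells seeded 20-24 h, medium refreshed for 2 h, then treated with compounds for 2 h at 0.5% final DMSO. Lysates frozen at −80 °C, then pAKT detected by AlphaLISA with acceptor and donor beads, 2 h each.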

Assay [2] has as its system pS6K1 (p-p70 S6 Kinase (Thr389)) in MCF-7 cells. Put plainly: AlphaLISA Ultra pS6K1 assay. Format: cell-based. To be noted: 2 hours compound incubation. In short, it runs like this: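 MCF-7 cells seeded 20–24 h, medium refreshed 2 h, then treated 2 h with compound (0.5% DMSO final). Lysates probed for Thr389-phosphorylated p70 S6K by AlphaLISA Ultra, 2 h acceptor then 2 h donor bead incubation, read on a multimode reader.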
In general terms: In Alpha technology, singlet oxygen from a donor bead excites a nearby acceptor bead.

[3] abbreviates: Homo sapiens, MCF7, 2 hours compound incubation.

By IC50 is commonly meant the concentration that gives 50% inhibition. As for `Cc1nc(C)c(C(=O)N2CCN(c3ccccc3)[C@H](CO)C2)c(C)c1NC1CCN(c2ncccc2Cl)CC1` [I-165, [(2S)-4-(5-{[1-(3-chloropyridin-2-yl)piperidin-4-yl]amino}-2,4,6-trimethyl-pyridine-3-carbonyl)-1-phenyl-piperazin-2-yl]MeOH], the IC50 in assay [1] (2 hours compound incubation, read-out: pAKT in MCF7: IC50) is > 10000 nM; in assay [2] (read-out: pS6K1 in MCF7: IC50) it was 10 to 1000 nM.

For `Cc1cc(C)c(C(=O)N2CCN(c3ccccc3S(N)(=O)=O)CC2)cc1N[C@H]1CCN(c2ccccc2C#N)C[C@H]1C` [I-169, 2-(4-(5-(((3R,4S)-1-(2-cyanophenyl)-3-methylpiperidin-4-yl)amino)-2,4-dimethylbenzoyl)piperazin-1-yl)benzenesulfonamide], the IC50 in assay [1] (setting [3]) is > 10000 nM; in assay [2] (Homo sapiens, MCF7, 2 h) it was 1000 to 3000 nM.

For the molecule `Cc1cc(C)c(C(=O)N2CCN(c3ccccc3S(N)(=O)=O)CC2)cc1N[C@@H]1CCN(c2ccccc2C#N)C[C@H]1C` [I-170, 2-(4-(5-(((3R,4R)-1-(2-cyanophenyl)-3-methylpiperidin-4-yl)amino)-2,4-dimethylbenzoyl)piperazin-1-yl)benzenesulfonamide], the IC50 was > 10000 nM in assay [1] (setting [3]) and 10 to 1000 nM in assay [2] (Homo sapiens, MCF7, 2 h).

As for `Cc1cc(C(F)(F)F)c(NC2CCN(c3ccccc3C#N)CC2)cc1C(=O)N1CCN(c2cccnc2S(N)(=O)=O)CC1` [I-172, 3-(4-(5-((1-(2-cyanophenyl)piperidin-4-yl)amino)-2-methyl-4-(trifluoromethyl)benzoyl)piperazin-1-yl)pyridine-2-sulfonamide], the IC50 in assay [1] (setting [3]) is > 10000 nM; in assay [2] (Homo sapiens, MCF7, 2 h), 3000 to 5000 nM.

In the case of `Cc1cc(C)c(C(=O)N2CCN(c3c(F)cc(F)cc3S(N)(=O)=O)CC2)cc1NC1CCN(c2ccccc2C#N)CC1` [I-174, 2-(4-(5-((1-(2-cyanophenyl)piperidin-4-yl)amino)-2,4-dimethylbenzoyl)piperazin-1-yl)-3,5-difluorobenzenesulfonamide], the IC50 in assay [1] (setting [3]) is > 10000 nM; in assay [2] (Homo sapiens, MCF7, 2 h) it was 10 to 1000 nM.

On to `Cc1cc(C)c(C(=O)N2CCN(c3cccnc3[S@](C)(=N)=O)CC2)c(C)c1NC1CCN(c2ncccc2Cl)CC1` [I-175, (R)-(3-(4-(3-((1-(3-chloropyridin-2-yl)piperidin-4-yl)amino)-2,4,6-trimethylbenzoyl)piperazin-1-yl)pyridin-2-yl)(imino)(methyl)-λ^6-sulfanone Trifluoroacetate Salt], for which the IC50 in assay [1] (setting [3]) is > 10000 nM; in assay [2] (Homo sapiens, MCF7, 2 h), 10 to 1000 nM.

Consider `Cc1cc(C)c(C(=O)N2CCN(c3nnco3)[C@H](CO)C2)cc1NC1CCN(c2ccccc2C#N)CC1` [I-177, (S)-2-(4-((5-(3-(hydroxymethyl)-4-(1,3,4-oxadiazol-2-yl)piperazine-1-carbonyl)-2,4-dimethylphenyl)amino)piperidin-1-yl)benzonitrile], for which the concentration for half-maximal inhibition (IC50) is > 10000 nM in assay [1] (setting [3]) and 1000 to 3000 nM in assay [2] (Homo sapiens, MCF7, 2 h).

As for `Cc1cc(C)c(C(=O)N2CCN(c3ncccc3S(N)(=O)=O)CC2)c(C)c1N[C@H]1CCN(c2ccccc2C#N)C[C@H]1C` [I-178, 2-(4-(3-(((3R,4S)-1-(2-cyanophenyl)-3-methylpiperidin-4-yl)amino)-2,4,6-trimethylbenzoyl)piperazin-1-yl)pyridine-3-sulfonamide], the IC50 in assay [1] (setting [3]) was > 10000 nM; in assay [2] (Homo sapiens, MCF7, 2 h), 10 to 1000 nM.

For `Cc1cc(C)c(C(=O)N2CCN(c3ncccc3S(N)(=O)=O)CC2)c(C)c1N[C@@H]1CCN(c2ccccc2C#N)C[C@@H]1C` [I-179, 2-(4-(3-(((3S,4R)-1-(2-cyanophenyl)-3-methylpiperidin-4-yl)amino)-2,4,6-trimethylbenzoyl)piperazin-1-yl)pyridine-3-sulfonamide], the IC50 was > 10000 nM in assay [1] (setting [3]) and 10 to 1000 nM in assay [2] (Homo sapiens, MCF7, 2 h).

`Cc1cc(C)c(C(=O)N2CCN(c3ncccc3S(N)(=O)=O)CC2)c(C)c1N[C@@H]1CCN(c2ccccc2C#N)C[C@H]1C` [I-180, 2-(4-(3-(((3R,4R)-1-(2-cyanophenyl)-3-methylpiperidin-4-yl)amino)-2,4,6-trimethylbenzoyl)piperazin-1-yl)pyridine-3-sulfonamide]: the IC50 in assay [1] (setting [3]) was > 10000 nM; in assay [2] (Homo sapiens, MCF7, 2 h) it was 10 to 1000 nM.

Regarding `Cc1cc(C)c(C(=O)N2CCN(c3ncccc3S(N)(=O)=O)CC2)c(C)c1N[C@H]1CCN(c2ccccc2C#N)C[C@@H]1C` [I-181, 2-(4-(3-(((3S,4S)-1-(2-cyanophenyl)-3-methylpiperidin-4-yl)amino)-2,4,6-trimethylbenzoyl)piperazin-1-yl)pyridine-3-sulfonamide], the IC50 in assay [1] (setting [3]) is > 10000 nM; in assay [2] (Homo sapiens, MCF7, 2 h), 10 to 1000 nM.

For the molecule `Cc1cc(C)c(C(=O)N2CCN(c3ccccn3)[C@H](CO)C2)cc1NC1CCN(c2ccccc2OC(F)(F)F)CC1` [I-183, (S)-(2,4-dimethyl-5-(1-(2-(trifluoromethoxy)phenyl)piperidin-4-ylamino)phenyl)(3-(hydroxymethyl)-4-(pyridin-2-yl)piperazin-1-yl)methanone], the IC50 in assay [1] (setting [3]) is > 10000 nM; in assay [2] (Homo sapiens, MCF7, 2 h), 10 to 1000 nM.

For the molecule `Cc1cc(C)c(C(=O)N2CCN(c3ccccn3)[C@H](CO)C2)cc1NC1CCN(c2ccccc2OC(F)F)CC1` [I-184, (S)-(5-(1-(2-(difluoromethoxy)phenyl)piperidin-4-ylamino)-2,4-dimethylphenyl)(3-(hydroxymethyl)-4-(pyridin-2-yl)piperazin-1-yl)methanone], the IC50 in assay [1] (setting [3]) is > 10000 nM; in assay [2] (Homo sapiens, MCF7, 2 h) it was 10 to 1000 nM.

Take `Cc1cc(C)c(C(=O)N2CCN(c3cccnc3S(N)(=O)=O)CC2)c(C)c1NC1CCN(c2ncccc2Cl)CC1` [I-185, 3-(4-(3-(1-(3-chloropyridin-2-yl)piperidin-4-ylamino)-2,4,6-trimethylbenzoyl)piperazin-1-yl)pyridine-2-sulfonamide]: the IC50 in assay [1] (setting [3]) was > 10000 nM; in assay [2] (Homo sapiens, MCF7, 2 h), 10 to 1000 nM.

With `Cc1cc(C)c(C(=O)N2CCN(c3ncccc3S(N)(=O)=O)CC2)c(C)c1NC1CCN(c2ncccc2Cl)CC1` [I-186, 2-(4-(3-(1-(3-chloropyridin-2-yl)piperidin-4-ylamino)-2,4,6-trimethylbenzoyl)piperazin-1-yl)pyridine-3-sulfonamide], the IC50 in assay [1] (setting [3]) is > 10000 nM; in assay [2] (Homo sapiens, MCF7, 2 h), 10 to 1000 nM.

For `Cc1cc(C)c(C(=O)N2CCN(c3cccc(F)c3S(N)(=O)=O)CC2)cc1NC1CCN(c2c(F)cc(F)cc2C#N)CC1` [I-187, 2-(4-(5-(1-(2-cyano-4,6-difluorophenyl)piperidin-4-ylamino)-2,4-dimethylbenzoyl)piperazin-1-yl)-6-fluorobenzenesulfonamide], the IC50 in assay [1] (setting [3]) is > 10000 nM; in assay [2] (Homo sapiens, MCF7, 2 h) it was > 10000 nM.

With `Cc1cc(C)c(C(=O)N2CCN(c3ncccc3S(N)(=O)=O)C[C@@H]2C)c(C)c1NC1CCN(c2ccccc2C#N)CC1` [I-188, (S)-2-(4-(3-(1-(2-cyanophenyl)piperidin-4-ylamino)-2,4,6-trimethylbenzoyl)-3-methylpiperazin-1-yl)pyridine-3-sulfonamide], the IC50 in assay [1] (setting [3]) is > 10000 nM; in assay [2] (Homo sapiens, MCF7, 2 h), 1000 to 3000 nM.

Take `Cc1cc(C)c(C(=O)N2CCN(c3cccc(F)c3[S@@](C)(=N)=O)C[C@@H]2C)c(C)c1NC1CCN(c2ccccc2C#N)CC1` [I-189, 2-(4-(3-((S)-4-(3-fluoro-2-((S)-S-methylsulfonimidoyl)phenyl)-2-methylpiperazine-1-carbonyl)-2,4,6-trimethylphenylamino)piperidin-1-yl)benzonitrile]: the IC50 in assay [1] (setting [3]) is > 10000 nM; in assay [2] (Homo sapiens, MCF7, 2 h), 10 to 1000 nM.

In the case of `Cc1cc(C)c(C(=O)N2CCN(c3cccc(F)c3[S@](C)(=N)=O)C[C@@H]2C)c(C)c1NC1CCN(c2ccccc2C#N)CC1` [I-190, 2-(4-(3-((S)-4-(3-fluoro-2-((R)-S-methylsulfonimidoyl)phenyl)-2-methylpiperazine-1-carbonyl)-2,4,6-trimethylphenylamino)piperidin-1-yl)benzonitrile], the IC50 is > 10000 nM in assay [1] (setting [3]) and 10 to 1000 nM in assay [2] (Homo sapiens, MCF7, 2 h).

Take `Cc1cc(C)c(C(=O)N2CCN(c3ncccc3S(N)(=O)=O)C[C@@H]2C)c(C)c1NC1CCN(c2ccc(F)cc2C#N)CC1` [I-193, (S)-2-(4-(3-(1-(2-cyano-4-fluorophenyl)piperidin-4-ylamino)-2,4,6-trimethylbenzoyl)-3-methylpiperazin-1-yl)pyridine-3-sulfonamide]: the IC50 in assay [1] (setting [3]) was > 10000 nM; in assay [2] (Homo sapiens, MCF7, 2 h) it was 1000 to 3000 nM.
